Laboratory results reported in ChEMBL document CHEMBL4308841, “Synthesis, in vitro antiproliferative activity, and kinase inhibitory effects of pyrazole-containing diarylureas and diarylamides” (Eur J Med Chem, 2018).

What was measured:
HL-60(TB) = test: Growth inhibition of human HL-60(TB) cells assessed as cell growth at 1 uM incubated for 48 hrs by sulforhodamine B assay relative to control; assay type: functional; conditions: HL-60, 48 h, read-out: Activity
NCI-H23 = test: Growth inhibition of human NCI-H23 cells assessed as cell growth at 0.01 uM incubated for 48 hrs by sulforhodamine B assay relative to control; assay type: functional; conditions: NCI-H23, 48 h, read-out: Activity
SNB-19 = test: Growth inhibition of human SNB19 cells incubated for 48 hrs by sulforhodamine B assay; assay type: functional, cell-based; conditions: SNB-19, 48 h
A549 = test: Growth inhibition of human A549/ATCC cells assessed as cell growth at 0.1 uM incubated for 48 hrs by sulforhodamine B assay relative to control; assay type: functional; conditions: A549, 48 h, read-out: Activity
HT-29 [1] = test: Growth inhibition of human HT-29 cells assessed as cell growth at 0.1 uM incubated for 48 hrs by sulforhodamine B assay relative to control; assay type: functional; conditions: HT-29, 48 h, read-out: Activity
HCT-15 = test: Growth inhibition of human HCT15 cells assessed as cell growth at 1 uM incubated for 48 hrs by sulforhodamine B assay relative to control; assay type: functional; conditions: HCT-15, 48 h, read-out: Activity
SK-MEL-5 = test: Growth inhibition of human SK-MEL-5 cells incubated for 48 hrs by sulforhodamine B assay; assay type: functional, cell-based; conditions: SK-MEL-5, 48 h
ACHN [2] = test: Growth inhibition of human ACHN cells assessed as cell growth at 0.1 uM incubated for 48 hrs by sulforhodamine B assay relative to control; assay type: functional; conditions: read-out: Activity
T47D = test: Growth inhibition of human T47D cells assessed as cell growth at 0.01 uM incubated for 48 hrs by sulforhodamine B assay relative to control; assay type: functional; conditions: read-out: Activity
ACHN [3] = test: Growth inhibition of human ACHN cells assessed as cell growth at 0.01 uM incubated for 48 hrs by sulforhodamine B assay relative to control; assay type: functional; conditions: read-out: Activity
K562 = test: Growth inhibition of human K562 cells assessed as cell growth at 100 uM incubated for 48 hrs by sulforhodamine B assay relative to control; assay type: functional; conditions: K562, 48 h, read-out: Activity
UACC-257 = test: Growth inhibition of human UACC257 cells assessed as cell growth at 100 uM incubated for 48 hrs by sulforhodamine B assay relative to control; assay type: functional; conditions: UACC-257, 48 h, read-out: Activity
OVCAR-8 = test: Growth inhibition of human OVCAR8 cells assessed as cell growth at 0.01 uM incubated for 48 hrs by sulforhodamine B assay relative to control; assay type: functional; conditions: OVCAR-8, 48 h, read-out: Activity
NCI-H522 = test: Growth inhibition of human NCI-H522 cells assessed as cell growth at 0.1 uM incubated for 48 hrs by sulforhodamine B assay relative to control; assay type: functional; conditions: NCI-H522, 48 h, read-out: Activity
MDA-MB-231 = test: Growth inhibition of human MDA-MB-231 cells assessed as cell growth at 0.1 uM incubated for 48 hrs by sulforhodamine B assay relative to control; assay type: functional; conditions: MDA-MB-231, 48 h, read-out: Activity
NCI-H460 = test: Growth inhibition of human NCI-H460 cells assessed as cell growth at 0.01 uM incubated for 48 hrs by sulforhodamine B assay relative to control; assay type: functional; conditions: NCI-H460, 48 h, read-out: Activity
HT-29 [4] = test: Growth inhibition of human HT-29 cells incubated for 48 hrs by sulforhodamine B assay; assay type: functional, cell-based; conditions: HT-29, 48 h
CCRF-CEM = test: Growth inhibition of human CCRF-CEM cells incubated for 48 hrs by sulforhodamine B assay; assay type: functional, cell-based
SK-OV-3 = test: Growth inhibition of human SKOV3 cells incubated for 48 hrs by sulforhodamine B assay; assay type: functional, cell-based; conditions: SK-OV-3, 48 h
COLO 205 = test: Growth inhibition of human COLO205 cells incubated for 48 hrs by sulforhodamine B assay; assay type: functional, cell-based; conditions: COLO 205, 48 h
Malme-3M = test: Growth inhibition of human MALME-3M cells assessed as cell growth at 100 uM incubated for 48 hrs by sulforhodamine B assay relative to control; assay type: functional; conditions: read-out: Activity
SF-295 = test: Growth inhibition of human SF295 cells assessed as cell growth at 1 uM incubated for 48 hrs by sulforhodamine B assay relative to control; assay type: functional; conditions: SF-295, 48 h, read-out: Activity
SW-620 = test: Growth inhibition of human SW620 cells assessed as cell growth at 100 uM incubated for 48 hrs by sulforhodamine B assay relative to control; assay type: functional; conditions: SW-620, 48 h, read-out: Activity
MOLT-4 = test: Growth inhibition of human MOLT4 cells assessed as cell growth at 0.01 uM incubated for 48 hrs by sulforhodamine B assay relative to control; assay type: functional; conditions: MOLT-4, 48 h, read-out: Activity
ACHN [5] = test: Growth inhibition of human ACHN cells incubated for 48 hrs by sulforhodamine B assay; assay type: functional, cell-based
DU-145 = test: Growth inhibition of human DU145 cells assessed as cell growth at 1 uM incubated for 48 hrs by sulforhodamine B assay relative to control; assay type: functional; conditions: DU-145, 48 h, read-out: Activity
HOP-62 = test: Growth inhibition of human HOP62 cells assessed as cell growth at 0.1 uM incubated for 48 hrs by sulforhodamine B assay relative to control; assay type: functional; conditions: HOP-62, 48 h, read-out: Activity
KM12 = test: Growth inhibition of human KM12 cells incubated for 48 hrs by sulforhodamine B assay; assay type: functional, cell-based; conditions: KM12, 48 h
[6] = read-out: LC50 (the source's name)
[7] = read-out: pLC50 (the source's name) (converted)

O=C(Nc1cccc(-n2cc(-c3ccncc3)c(-c3cc(O)cc(Cl)c3)n2)c1)Nc1ccc(Cl)c(Cl)c1
growth at 1 µM (HL-60(TB)): 106% | growth at 0.01 µM (NCI-H23): 96% | GI50 (SNB-19; read-out: GI50): 3.38 µM | CC50 (SNB-19; [6]): > 100 µM | TGI (SNB-19; read-out: TGI): 19 µM | GI50 (SNB-19; read-out: pGI50 (converted)): 3.16 µM | CC50 (SNB-19; [7]): > 100 µM | TGI (SNB-19; read-out: pTGI (converted)): 19.1 µM | growth at 0.1 µM (A549): 99% | growth at 0.1 µM (HT-29 [1]): 97% | growth at 1 µM (HCT-15): 75% | GI50 (SK-MEL-5; read-out: GI50): 1.52 µM | CC50 (SK-MEL-5; [6]): 5.75 µM | TGI (SK-MEL-5; read-out: TGI): 30.4 µM | GI50 (SK-MEL-5; read-out: pGI50 (converted)): 1.62 µM | CC50 (SK-MEL-5; [7]): 5.75 µM | TGI (SK-MEL-5; read-out: pTGI (converted)): 3.02 µM | growth at 0.1 µM (ACHN [2]): 95% | growth at 0.01 µM (T47D): 106% | growth at 0.01 µM (ACHN [3]): 91% | growth at 100 µM (K562): 5% | growth at 100 µM (UACC-257): -92% | growth at 0.01 µM (OVCAR-8): 102% | growth at 0.1 µM (NCI-H522): 92% | growth at 0.1 µM (MDA-MB-231): 85% | growth at 0.01 µM (NCI-H460): 102% | GI50 (HT-29 [4]; read-out: GI50): 1.92 µM | CC50 (HT-29 [4]; [6]): 7.9 µM | TGI (HT-29 [4]; read-out: TGI): 39 µM | GI50 (HT-29 [4]; read-out: pGI50 (converted)): 1.91 µM | CC50 (HT-29 [4]; [7]): 7.94 µM | TGI (HT-29 [4]; read-out: pTGI (converted)): 3.89 µM | GI50 (CCRF-CEM; read-out: GI50): 2.12 µM | CC50 (CCRF-CEM; [6]): > 100 µM | GI50 (CCRF-CEM; read-out: pGI50 (converted)): 2.14 µM | CC50 (CCRF-CEM; [7]): > 100 µM | GI50 (SK-OV-3; read-out: GI50): 3.42 µM | CC50 (SK-OV-3; [6]): > 100 µM | TGI (SK-OV-3; read-out: TGI): 94.3 µM | GI50 (SK-OV-3; read-out: pGI50 (converted)): 3.39 µM | CC50 (SK-OV-3; [7]): > 100 µM | TGI (SK-OV-3; read-out: pTGI (converted)): 9.33 µM | GI50 (COLO 205; read-out: GI50): 1.96 µM | CC50 (COLO 205; [6]): 7.29 µM | TGI (COLO 205; read-out: TGI): 37.8 µM | GI50 (COLO 205; read-out: pGI50 (converted)): 1.95 µM | CC50 (COLO 205; [7]): 7.24 µM | TGI (COLO 205; read-out: pTGI (converted)): 3.8 µM | growth at 100 µM (Malme-3M): -45% | growth at 1 µM (SF-295): 77% | growth at 100 µM (SW-620): -36% | growth at 0.01 µM (MOLT-4): 93% | GI50 (ACHN [5]; read-out: GI50): 2.21 µM | CC50 (ACHN [5]; [6]): > 100 µM | TGI (ACHN [5]; read-out: TGI): 67.1 µM | GI50 (ACHN [5]; read-out: pGI50 (converted)): 2.19 µM | CC50 (ACHN [5]; [7]): > 100 µM | TGI (ACHN [5]; read-out: pTGI (converted)): 8.91 µM | growth at 1 µM (DU-145): 90% | growth at 0.1 µM (HOP-62): 97% | GI50 (KM12; read-out: GI50): 1.5 µM | CC50 (KM12; [6]): 9 µM | TGI (KM12; read-out: TGI): 36.9 µM | GI50 (KM12; read-out: pGI50 (converted)): 1.51 µM | CC50 (KM12; [7]): 9.12 µM | TGI (KM12; read-out: pTGI (converted)): 3.72 µM
